From US8507409B2, “Synergistic combination of a glyphosate compound and DMITS” (Dow Global Technologies LLC, priority 2010, dated 2013)

Key:
Assay type in all cases: cell-based
[1] = system: Chlorella sp., Chlorella kessleri, and Nostoc commune; assay: Algal efficacy, dry paint film (Modified ASTM 5589), Cs + Ck + Nc pool; details: Ch-No; for Total conc in pppm: minimum inhibitory concentration chosen for SI calculation, total actives in paint
Method: (§1) Each sample was tested in duplicate.
(§2) In this synergy study, three pool of mixed algae were prepared as the test inoculum, Gloeocapsa sp. and Oscillatoria sp. a mix of cyanobacteria grown on BG-11 media; Chlorella sp., Chlorella kessleri, and Nostoc commune are unicellular chlorphytes that were mixed and grown on Bold media; Trentepohlia aurea, Tretepohlia odorata, and Calotrix parientina are filamentous algae that were mixed and grown on Bold media.
(§3) The plates were incubated at room temp (25° C.-26° C.) with cyclic exposure to light (OTT-Lite model # OTL4012P, 40 Watt, 26KLumen) and dark phases, for a period of four weeks. The total area covered was evaluated at the end of each week according to percent area covered in 5% increments.
(§4) The SI is calculated based on F. C.
(§5) SI value of <1 in the formula indicates a synergism of the blended biocides exists.
(§6) NE=no end point at the concentration tested that will meet the percent inhibition criteria set in each SI calculation.

[2] = system: Trentepohlia aurea, Tretepohlia odorata, and Calotrix parientina; assay: Algal efficacy, dry paint film (Modified ASTM 5589), Cp + To + Ta pool; details: Cal-Tre; for Total conc in pppm: minimum inhibitory concentration chosen for SI calculation, NE=no end point
Method: as §1, §2, §3, §4, §5, §6

[3] = system: Aspergillus niger mixed with Penicillium funiculosum; assay: Fungal efficacy, dry paint film (Modified ASTM 5590), An + Pf pool; details: for Total conc in pppm: minimum inhibitory concentration chosen for SI calculation, total actives in paint
Method: as §1, §4, §5, §6

[4] = system: Gloeocapsa sp. and Oscillatoria sp.; assay: Algal efficacy, dry paint film (Modified ASTM 5589), Gs + Os pool; details: Os-Gl; for Total conc in pppm: minimum inhibitory concentration chosen for SI calculation, total actives in paint
Method: as §1, §2, §3, §4, §5, §6

[5] = at the total conc listed for the same ratio

With zinc glyphosate as the compound, how does the “Total conc in pppm” value [1] read?
Its value is 412.5 pppm.

What about the “Total conc in pppm” value [2] of the same compound?
Its value is 412.5 pppm.

What about the “Total conc in pppm” value [3] of the same compound?
The value was 412.5 pppm.

What about the “Total conc in pppm” value [4] of the same compound?
Its value is 412.5 pppm.

Which “% Inhibition” value [1, 5] does the source give for `Cc1ccc(S(=O)(=O)C(I)I)cc1` [DMITS, diiodomethyl-p-tolylsulfone] here?
The value was 80%.

What about the “Total conc in pppm” value [1] of the same compound?
The value was 2475 pppm.

What about the “% Inhibition” value [2, 5] of the same compound?
Its value is 20%.

And the “Total conc in pppm” value [2]?
Its value is 3300 pppm.

What about the “% Inhibition” value [3, 5] of the same compound?
Its value is 80%.

What about the “Total conc in pppm” value [3] of the same compound?
Its value is 825 pppm.

And the “% Inhibition” value [4, 5]?
The value was 20%.

And the “Total conc in pppm” value [4]?
The value was 3300 pppm.
